The text below walks through data of ChEMBL document CHEMBL1649549, “Stability of peroxide antimalarials in the presence of human hemoglobin” (Antimicrob Agents Chemother, 2009).

The structures appear in SMILES notation.

A short description of data set [1]: Stability of compound in presence water assessed as pseudo-first order degradation rate constant at 10 uM at 20degC over 24 hrs. Format: physicochemical. The settings on record: buffer.
A short description of data set [2]: Stability of compound in presence of […] assessed as pseudo-first order degradation rate constant at 10 uM at 20degC over 24 hrs. It is filed as ADME.
Data set [3] can be described thus: Stability of compound in presence of oxyhemoglobin assessed as pseudo-first order degradation rate constant at 10 uM at 20degC over 24 hrs. Format: ADME.

For the compound `C[C@H]1[C@@H](O)O[C@@H]2O[C@@]3(C)CC[C@H]4[C@H](C)CC[C@@H]1[C@@]24OO3` [ARTENIMOL], the Activity in data set [1] was found to be 0.00001 h⁻¹; in data set [2] it was 0.004 h⁻¹; in data set [3] it was 0.017 h⁻¹.
In the same order, the values of `O=C(O)C[C@H]1CC[C@]2(CC1)OO[C@]1(O2)C2CC3CC(C2)CC1C3` are 0.006 h⁻¹, 0.006 h⁻¹ and 0.01 h⁻¹.
Consider `C[C@@H]1CC[C@H]2[C@@H](C)C(=O)O[C@@H]3O[C@@]4(C)CC[C@@H]1[C@]32OO4` [ARTEMISININ], for which the Activity in data set [1] came out at 0.0004 h⁻¹; in data set [2] it was 0.003 h⁻¹; in data set [3] it was 0.008 h⁻¹.
With `CC(C)(N)CNC(=O)C[C@H]1CC[C@]2(CC1)OO[C@]1(O2)C2CC3CC(C2)CC1C3` [OZ277], the Activity was determined as 0.015 h⁻¹ in data set [1], 0.013 h⁻¹ in data set [2] and 0.01 h⁻¹ in data set [3].
In the same order, the values of `CO[C@H]1O[C@@H]2O[C@@]3(C)CC[C@H]4[C@H](C)CC[C@@H]([C@H]1C)[C@@]24OO3` [ARTEMETHER] are 0.002 h⁻¹, 0.002 h⁻¹ and 0.007 h⁻¹.
